In patent US20040186022A1, “Enhanced herbicides” (priority 1999, published 2004):

Columns and labels:
[1] = tested on: black beans (dry bean variety T39); test: Synergistic interactions of succinic acid and di-ammonium succinate with other herbicidal compounds, dry beans (black); type: in vivo; conditions: for Injury rating, average per plot: scale 1-5
From the text: (§1) The herbicides were applied in the “spray to drip” amount or at a calibrated 20-60 gallons/acre. “Spray to drip” is an uncalibrated application of fluid to foliage, where sufficient spray volume is used to sufficiently saturate the foliage surface until excess fluid begins to drip from the foliage.

[2] = tested on: navy dry beans (navy Vista); test: Synergistic interactions of succinic acid and di-ammonium succinate with herbicidal compounds, navy dry beans; type: in vivo, dry bean (navy); conditions: for Injury rating, average per plot: scale 1-5
From the text: as §1

plants = test: Synergistic relationship between succinic acid and caprylic/capric acids C/C, herbicidal activity; type: in vivo
From the text: as §1

[3] = tested on: 40 G/a: crab grass, pigweed, chick weed and foxtail; 60 G/a: pigweed, Kentucky bluegrass, foxtail, crab grass and barnyard grass; spray to drip: Kentucky …; test: Herbicidal activities: synergy between succinic acid and pelargonic acid; type: in vivo
From the text: as §1

[4] = tested on: 60 G/a: lambsquarter, pigweed and velvetleaf; spray to drip: lambsquarter and foxtail; test: Herbicidal activity of caproic acid with succinic acid and sodium salicylate; type: in vivo; conditions: for Total Injury ratings, Total score: 60 G/a plus spray to drip; for Total injury ratings, 60 G/a: 4 pots/treatment, lambsquarter, pigweed and velvetleaf, rating 1-5 per pot; for Total injury ratings, Spray to drip: 2 pots/treatment, lambsquarter and foxtail
From the text: as §1

[5] = tested on: 40 G/a: crab grass, chickweed and common lambsquarter; 60 G/a: redtop, pigweed, foxtail; spray to drip: barnyard grass, foxtail, sudan grass and nutsedge; test: Herbicidal combinations of caprylic/capric (c/c) or pelargonic acid with equimolar succinic acid and ammonium succinate, on weed varieties; type: in vivo
[6] = tested on: 60 G/a: redroot pigweed, foxtail and velvetleaf; spray to drip: foxtail, dry beans and pigweed; test: Herbicidal activity: caprylic acid and succinic acid +/- ammonium sulfate; type: in vivo
From the text: as §1

Potato, variety Katahdin = test: Potato field trial: 2 applications of selected herbicides, including Desiccate II; type: in vivo; conditions: scale 1-5
From the text: as §1

soybeans = test: Synergistic relationships: succinic acid + caprylic acid, succinic acid + sodium salicylate, testing soybeans; type: in vivo; conditions: 3 days after a single foliar application, soybean Stine 2250; for Overall Effect: 5 equals profound desiccation
From the text: as §1

[7] = tested on: chickweed, redtop, velvetleaf, crabgrass and green foxtail; test: Enhancement of herbicidal activity of caprylic/capric acids (c/c) using selected compounds at equimolar amounts; type: in vivo
From the text: as §1

[8] = 40 G/a, 60 G/a and spray to drip

SMILES: O=C(O)CCC(=O)O [0.5% succinic acid, succinic acid]
- Injury rating, average per plot ([1]; Day 2, one application at 40 G/acre, treatments 1-4, 9-11 in Emsorb 6900/mineral oil/Hasten, 5-8, 12-14 in 0.3% Sylgard 309): 0
- % desiccation (Day 12), foliage ([1]; Day 12, foliage): 0%
- % desiccation (Day 12), pods ([1]; Day 12, pods): 0%
- % desiccation (Day 12), vines ([1]; Day 12, vines): 0%
- Injury rating, average per plot ([1]; Day 12): 0
- Injury rating, average per plot ([2]; Day 1, one application at 40 G/acre, treatments 1-4, 9-11 in Emsorb 6900/mineral oil/Hasten, 5-8, 12-14 in 0.3% Sylgard 309): 0
- Injury rating, average per plot ([2]; Day 2): 0
- Injury rating, average per plot ([2]; Day 3): 0
- Injury rating, average per plot ([2]; Day 4): 0
- % desiccation (Day 12), foliage ([2]; Day 12, foliage): 0%
- % desiccation (Day 12), pods ([2]; Day 12, pods): 0%
- % desiccation (Day 12), vines ([2]; Day 12, vines): 0%
- Injury rating, average per plot ([2]; Day 12): 0
- Injury ratings, Total (plants; 40 G/a + 60 G/a): 0
- Injury ratings based on 2 independent evaluations, 40 G/a (plants; 40 G/acre: Canadian thistle, velvet leaf, Johnson grass and giant foxtail, each pot rated 1 to 5): 0
- Injury ratings based on 2 independent evaluations, 60 G/a (plants; 60 G/acre: velvetleaf, Johnson grass and giant foxtail, each pot rated 1 to 5): 0
- Average rating per pot (plants; rating 1 to 5, 5 = complete desiccation of all plants): 0
- Total injury ratings, Total [3, 8]: 0
- Total injury ratings, 40 G/a ([3]; 40 G/a, 9 pots/treatment, rating 1-5 per pot, 1.125% Emsorb 6900): 0
- Total injury ratings, 60 G/a ([3]; 60 G/a, 10 pots/treatment): 0
- Total injury ratings, Spray to drip ([3]; spray to drip, 7 pots/treatment): 0

SMILES: CCCCCC(=O)O [2% caproic, caproic acid]
- Total Injury ratings, Total score [4]: 18.5
- Total injury ratings, 60 G/a [4]: 11.2
- Total injury ratings, Spray to drip [4]: 7.3

SMILES: CCCCCC(=O)O [3% caproic, caproic acid]
- Total Injury ratings, Total score [4]: 20.9
- Total injury ratings, 60 G/a [4]: 13.9
- Total injury ratings, Spray to drip [4]: 7

SMILES: CCCCCCCCC(=O)O [3% pelargonic acid, pelargonic acid]
- Total injury ratings, Total [5, 8]: 185.8
- Total injury ratings, 40 G/a ([5]; 40 G/a, 10 pots/treatment, two evaluations, rating 1-5 per pot, 1% Emsorb 6900): 87.7
- Total injury ratings, 60 G/a ([5]; 60 G/a, 7 pots/treatment, two evaluations): 60.8
- Average rating/pot ([5]; scale 1-5): 4.42
- Total injury ratings, Spray to drip ([5]; spray to drip, 8 pots/treatment, one evaluation): 37.3

SMILES: CCCCCCCC(=O)O [4% caprylic acid, caprylic acid]
- Total Injury ratings, combined, for two separate evaluations, Total Rating ([6]; 60 G/a plus spray to drip): 116.8
- Total Injury ratings, combined, for two separate evaluations, 60 G/a ([6]; 60 G/a, 7 pots/treatment, rating 1-5 per pot, 1% Emsorb 6900): 60.7
- Average rating/pot ([6]; scale 1-5): 4.49
- Total Injury ratings, combined, for two separate evaluations, Spray to drip ([6]; spray to drip, 6 pots/treatment): 56.1

SMILES: CCCCCCCCC(=O)O [5% pelargonic, pelargonic acid]
- Injury rating, average per plot (Potato, variety Katahdin; Day 1, 40-42 G/acre, 2nd treatment 2 days after 1st): 4.07
- Injury rating, average per plot (Potato, variety Katahdin; Day 2): 4
- Injury rating, average per plot (Potato, variety Katahdin; Day 3): 4.13
- Injury rating, average per plot (Potato, variety Katahdin; Day 5): 4.43

SMILES: CCCCCCCC(=O)O [Caprylic Acid (1%)]
- Foliage Affected (%) (soybeans): 25-30%
- Overall Effect (soybeans): 2.5

SMILES: N.N.O=C(O)CCC(=O)O [ammonium succinate]
- Rating of additive tested alone ([5]; footnote): Since succinic acid (or ammonium succinate) tested alone had a rating of zero, pelargonic acid (or c/c) + succinic acid (or ammonium succinate) were synergistic. The exception was: 3% pelargonic acid + 1.26% ammonium succinate

SMILES: O=C(O)CCC(=O)O [succinic acid (1%), succinic acid]
- Relative injury ratings, Day #2 ([7]; Day 2 after treatment, 40 G/acre, 8 pots, rating 1-5 per pot, […] Emsorb 6900, […] mineral oil): 0
- Relative injury ratings, Day #4 ([7]; Day 4 after treatment): 0
- Relative injury ratings, Day #5 ([7]; Day 5 after treatment): 0
- Average rating per pot ([7]; scale 1-5): 0
- Foliage Affected (%) (soybeans): 0%
- Overall Effect (soybeans): 0
